Several values for one entry are separate records, joined by “and”; a condition that tells them apart may be missing. Identical values can stand only once.
Columns and labels:
A549 cells = experiment: Homogeneity of irradiation: every well of an A549 plate treated equally with Photofrin®; type: cell-based, human; settings: Photofrin® at 1.5 μg/mL; wells in the middle of the plate; relative to a second plate of cells without drug; before lengthening the light path from 54 cm to 95.5 cm
Text: The Xenon arc lamp produces a bright, broad wavelength irradiance beam that when collimated still retains a bright center. This lack of homogeneity in the intensity of the light beam has to be minimized in order to achieve even irradiation over the area of the 96-well plate. For this purpose, two plano-convex lenses are introduced into the light path to approximate a Kohler illumination (FIG. 1). After an initial dosing ranging study of Photofrin® (data not shown), each well of an assay plate containing A549 cells is treated equally with Photofrin® at 1.5 μg/mL to assess homogeneity of the irradiation. For this experiment, the percent viability is calculated relative to a second plate of cells without drug. […] To address the inhomogeneity in irradiance, the distance from the final bandpass filter to the sample is raised approximately 2-fold from 54 cm to 95.5 cm while the first surface of the plano-convex lenses is maintained at 13.6 cm from the 650 nm cut-off filter. By increasing the length of the light path, the center zone of irradiance is broadened to cover the area of the entire plate (FIG. 13). As the light path is lengthened, the overall irradiance is decreased, necessitating the use of a higher Photofrin® concentration.

[1] = system: A549 human lung carcinoma cells; experiment: Photofrin® dose response of irradiated A549 cells with MTT as the endpoint; type: cell-based
Description: XTT and MTT are two types of formazan dyes that are used to measure mitochondrial function as a surrogate for cell viability. A Photofrin® dose response curve is performed with either XTT or MTT as the endpoint. The results obtained with these two endpoints differ by approximately 15%, but each produces consistent values (see Table 2, below). As the potency of an unknown will be determined with respect to a Reference Lot, the absolute EC50 value is not critical. Given that the use of the MTT dye requires an additional solubilization step, XTT is selected for use in this assay.

[2] = system: A549 human lung carcinoma cells; experiment: Control for the activity of Photofrin® in the absence of irradiation (+D, −L), viability relative to cell control; type: cell-based
Description: The plate is covered with a black lid and placed in the incubator for four hours to allow absorption of the drug by the cells. The plate is then removed from the incubator, the drug is aspirated, the wells are washed with Dulbecco's phosphate buffered saline (DPBS) and fresh, pre-warmed medium is added to the wells. The columns of wells not to be irradiated are covered with foil strips, the black lid is exchanged for a clear lid, and the plate is then moved to the irradiation template beneath the light beam and irradiated for ten minutes, for a total of 3.3 joules. The plate is returned to the incubator and assessed for viability using XTT after 24 hours. The wells covered with foil strips are important controls for the activity of Photofrin® in the absence of irradiation and the effect of light on the cells in the absence of drug.
The optical absorbance of the wells in column 1 (high drug concentration, no cells) is evaluated for absorption at 450 nm to ensure that the drug is not interfering with the XTT assay. The percent viability of each of the wells in columns 2-9 and 11 is calculated relative to the mean value of column 10 (cell control, no drug, no light). For each dose response obtained, a four parameter logistic (4PL) nonlinear regression analysis is performed of the percent viability versus the log-Photofrin® concentration. The point of inflection of the regression curve (C value) is defined as the EC50 and used in the calculation of relative potency. Curve fitting and calculation of the EC50 is performed with Softmax v5.4.2 (Molecular Devices, Inc.) or Prism v.5.04 (GraphPad, Software Inc.) software. The mean percent viability of columns 9 and 11 is also calculated.
Critical aspects of the system suitability will include the acceptable performance of the assay controls. The expectation is that the viability of cells receiving no drug but with light (−D, +L) and cells receiving a high concentration of drug but no light (+D, −L) should approximate the viability of the cell control not receiving drug or light (CC). The percent viability of all samples is based on the CC, which is calculated set at 1.00 and is not included in the Table.

- EC50-MTT ([1]; experiment PIN-009, in µg/mL): 8.28 and 8.11
- EC50-MTT, Mean ([1]; experiment PIN-009, mean): 8.2 µg/mL
Substance: porfimer sodium [Photofrin®]
- viability (A549 cells): 103%
- +D, −L/CC ([2]; 70 μg/mL drug, no irradiation, ratio to cell control (no drug, no irradiation), Plate 1 (left to right dilution; controls in columns 9-11)): 0.994
- +D, −L/CC ([2]; 70 μg/mL drug, no irradiation, ratio to cell control, Plate 2 (placement Test, Standard; controls in columns 9-11)): 0.926
- +D, −L/CC ([2]; 70 μg/mL drug, no irradiation, ratio to cell control, Plate 3 (right to left dilution; controls in columns 9-11)): 0.981
- +D, −L/CC ([2]; 70 μg/mL drug, no irradiation, ratio to cell control, Plate 4 (left to right dilution; controls in columns 9-11)): 0.928
- +D, −L/CC ([2]; 70 μg/mL drug, no irradiation, ratio to cell control, Plate 5 (left to right dilution; controls in columns 2-4)): 1.00
- +D, −L/CC, Mean ([2]; 70 μg/mL drug, no irradiation, ratio to cell control, mean across Plates 1-5 of positional analysis): 0.967
- +D, −L ([2]; high concentration of drug, no light, viability based on cell control set at 1.00, experiments of Table 1, black plates): 1.05 and 0.893 and 1.09
- +D, −L ([2]; high concentration of drug, no light, viability based on cell control set at 1.00, experiments of Table 1, clear plates (significant cell killing, excluded from the analysis)): 0.012 and 0.019 and 0.024
- +D, −L ([2]; high concentration of drug, no light, viability based on cell control set at 1.00, experiments of Table 2, black plates): 1.06 and 0.947 and 0.986
- +D, −L ([2]; high concentration of drug, no light, viability based on cell control set at 1.00, experiments of Table 4, black plates): 0.994 and 0.926 and 0.981 and 0.928 and 1.00
- +D, −L ([2]; high concentration of drug, no light, viability based on cell control set at 1.00, experiments of Table 5, black plates): 0.999 and 1.02 and 1.00 and 1.29 and 0.973
- +D, −L ([2]; high concentration of drug, no light, viability based on cell control set at 1.00, experiments of Table 6, black plates): 0.990 and 0.981 and 0.977
- +D, −L ([2]; high concentration of drug, no light, viability based on cell control set at 1.00, experiments of Table 7, black plates): 0.973 and 1.00
- +D, −L ([2]; high concentration of drug, no light, viability based on cell control set at 1.00, experiments of Table 8, black plates): 1.02 and 0.992 and 0.995 and 0.959 and 0.985
- +D, −L ([2]; high concentration of drug, no light, viability based on cell control set at 1.00, experiments of Table 9, black plates): 1.01 and 0.898 and 0.959
- +D, −L ([2]; high concentration of drug, no light, viability based on cell control set at 1.00, experiments of Table 10, black plates): 1.09 and 1.08 and 0.995
- +D, −L ([2]; high concentration of drug, no light, viability based on cell control set at 1.00, experiments of Table 11, black plates): 0.980 and 0.973 and 1.02 and 0.956
- +D, −L ([2]; high concentration of drug, no light, viability based on cell control set at 1.00, experiments of Table 12, black plates): 0.990 and 0.906 and 1.03 and 1.02 and 1.00
- +D, −L, Mean ([2]; high concentration of drug, no light, viability based on cell control set at 1.00, mean of all experiments, clear plate values excluded): 1.00
